Reference: patent publication US10278911B2, “Compositions containing cyclic peptides and methods of use” (Merck Patent GmbH, priority 2008, dated 2019)
Non-standard residues stand in square brackets, D forms with d. Residues, ends and D or L forms follow the SMILES beside them.

Assays:
av-beta6 = av-beta6 (Homo sapiens, UniProt P06756+P18564); assay: Integrin ligand activity (in vitro studies); assay type: binding
av-beta3/5 = assay: Integrin ligand activity (in vitro studies); assay type: binding
[1] = tested on: full thickness skin model (human primary epidermal keratinocytes and human fibroblasts); assay: cDNA-microarray gene expression profile of treated human skin model (PIQOR-skin); assay type: cell-based; settings: 0.5 μM, 4 days incubation
Protocol: The following is a study to determine the gene expression profiles of Cyclo-(Arg-Gly-Asp-DPhe-Acha) (=CPPC 1) treated human skin.
For the analysis of deregulated gene expression induced by substance CPPC 1, treated and control samples from a human skin model are analyzed as follows: • A full thickness skin model (human primary epidermal keratinocytes and human fibroblasts), such as the Phenion® FTSM, commercially available from Phenion GmbH & Co. KG, Düsseldorf, Germany, is used. Cells are not pooled or genetically modified. • Gene expression analysis is carried out with PIQOR™-skin cDNA microarrays, which contains 1312 genes that are involved in target pathways related to stress, inflammation, pigmentation and depigmentation, moisturization, anti-ageing and hair follicle development in humans. For instance, cell cycle, apoptosis, DNA repair, oxidative metabolism, angiogenesis, cell adhesion cell-matrix interactions and signaling. Genes are represented with four replicate spots. • Treatment with CPPC 1 is performed in 0.5 μM concentration (4 days incubation, n=3 per condition). […] Profiling of Gene Expression—Input Genes
A ratio (log 2) value of zero indicates no regulation, whereas positive (log 2) values indicate an upregulation and negative (log 2) values a downregulation of the relevant gene.
The deregulated genes for skin samples treated with 0.5 μM concentration is used for further analysis.

[2] = molecular target: T1, vitronectin receptor aVβ3 (Homo sapiens, UniProt P05106+P06756); assay: Pentapeptides as inhibitors of αVβ3 (immobilized), solid-phase inhibition assay; settings: αVβ3 from human placental extracts, binding of vitronectin, read-out: IC50 VN: αvβ3
T1 construct: Integrin αVβ3 is purified from human placental extracts; from tissue; host or cells: human placenta (extracts)
T1 sequence (P06756 31-889 limits assumed): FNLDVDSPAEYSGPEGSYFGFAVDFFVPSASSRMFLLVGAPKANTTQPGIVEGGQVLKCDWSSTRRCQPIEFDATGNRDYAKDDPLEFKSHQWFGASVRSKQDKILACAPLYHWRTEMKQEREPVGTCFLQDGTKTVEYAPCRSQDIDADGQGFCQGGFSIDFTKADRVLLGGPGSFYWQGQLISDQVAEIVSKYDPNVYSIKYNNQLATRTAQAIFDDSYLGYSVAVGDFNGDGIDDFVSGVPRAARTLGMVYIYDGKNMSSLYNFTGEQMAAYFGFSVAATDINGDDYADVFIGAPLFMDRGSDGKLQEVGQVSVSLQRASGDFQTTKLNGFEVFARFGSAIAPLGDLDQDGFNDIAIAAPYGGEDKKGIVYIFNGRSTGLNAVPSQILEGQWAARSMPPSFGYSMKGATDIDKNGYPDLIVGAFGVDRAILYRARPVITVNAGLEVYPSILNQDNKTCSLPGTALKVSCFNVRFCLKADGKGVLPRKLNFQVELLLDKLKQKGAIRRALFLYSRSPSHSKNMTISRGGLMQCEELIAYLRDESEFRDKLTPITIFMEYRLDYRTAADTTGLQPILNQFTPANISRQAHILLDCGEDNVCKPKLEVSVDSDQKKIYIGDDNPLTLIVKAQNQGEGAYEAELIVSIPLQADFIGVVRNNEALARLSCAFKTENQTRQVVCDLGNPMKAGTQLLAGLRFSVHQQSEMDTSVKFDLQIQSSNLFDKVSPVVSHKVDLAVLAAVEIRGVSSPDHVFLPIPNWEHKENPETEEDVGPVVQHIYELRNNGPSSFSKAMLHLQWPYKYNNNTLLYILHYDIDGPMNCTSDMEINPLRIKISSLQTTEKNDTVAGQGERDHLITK
T1 sequence (P06756 891-1048 partner limits assumed): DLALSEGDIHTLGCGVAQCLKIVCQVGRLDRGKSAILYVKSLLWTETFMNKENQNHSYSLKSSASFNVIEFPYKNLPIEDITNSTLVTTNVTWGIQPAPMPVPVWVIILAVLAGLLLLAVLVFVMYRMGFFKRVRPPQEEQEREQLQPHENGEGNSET
T1 sequence (P05106 27-788): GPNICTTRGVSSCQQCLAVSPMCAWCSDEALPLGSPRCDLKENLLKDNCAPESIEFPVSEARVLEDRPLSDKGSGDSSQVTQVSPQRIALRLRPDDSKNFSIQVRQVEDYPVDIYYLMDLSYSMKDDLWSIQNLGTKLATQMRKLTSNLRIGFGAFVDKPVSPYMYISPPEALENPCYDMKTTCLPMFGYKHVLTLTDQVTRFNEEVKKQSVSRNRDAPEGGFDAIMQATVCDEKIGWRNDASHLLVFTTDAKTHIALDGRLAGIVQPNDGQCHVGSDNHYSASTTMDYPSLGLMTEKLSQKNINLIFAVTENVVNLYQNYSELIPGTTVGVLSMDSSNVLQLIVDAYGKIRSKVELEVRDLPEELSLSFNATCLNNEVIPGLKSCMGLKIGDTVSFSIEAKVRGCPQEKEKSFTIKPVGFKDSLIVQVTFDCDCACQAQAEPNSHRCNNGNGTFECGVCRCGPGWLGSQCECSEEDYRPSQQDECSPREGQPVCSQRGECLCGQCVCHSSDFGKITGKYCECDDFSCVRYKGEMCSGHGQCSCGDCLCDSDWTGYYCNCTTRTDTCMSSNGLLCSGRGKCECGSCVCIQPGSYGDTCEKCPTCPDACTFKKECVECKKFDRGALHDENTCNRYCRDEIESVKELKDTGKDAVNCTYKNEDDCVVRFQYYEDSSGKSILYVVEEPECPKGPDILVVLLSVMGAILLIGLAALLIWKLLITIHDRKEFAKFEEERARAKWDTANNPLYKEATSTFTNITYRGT
Protocol: Preparation and Characterization of Integrin αVβ3: Integrin αVβ3 is purified from human placental extracts by affinity chromatography on GRGDSPK peptide. Extraction and chromatography follows previously published protocols except that Triton X-100 is replaced by 25 mM octyl-P-D-glucopyranoside. Bound integrin is eluted with 10 mM EDTA into 1.5-ml vials containing 25 pl of 1 M MgCl, and concentrated in Centricon 100 microconcentrators. They are stored at 4° C. in neutral buffer containing 25 mM octyl glucoside, and 0.05% sodium azide. Protein concentrations were determined by a micro BCA assay (Pierce).
Solid-phase inhibition assays are established for the inhibition of binding of the vitronectin receptor aVβ3 to their corresponding protein ligands by the cyclic peptides. Inhibitory activities (IC50) of cyclic RGD containing peptides for the binding of vitronectin (VN). Integrins are used as immobilized ligands.

human placental αVβ3 = molecular target: T2, human placental αVβ3 (Homo sapiens, UniProt P05106+P06756); assay: Receptor inhibition assay, binding of biotinylated ligands to human placental αVβ3; settings: purified human placental αVβ3, biotinylated vitronectin, 3 h at 30° C.; read-out: IC50 VN: αvβ3
T2 construct: Purified human integrin αVβ3 from term placenta; from tissue; host or cells: human term placenta
T2 sequence (P06756 31-889 limits assumed): as the sequence (P06756 31-889 limits assumed) above
T2 sequence (P06756 891-1048 partner limits assumed): as the sequence (P06756 891-1048 partner limits assumed) above
T2 sequence (P05106 27-788): as the sequence (P05106 27-788) above
Protocol: After 3 h at 30° C. bound ligand was measures by anti-biotin—alkaline phosphatase detection.

integrin αVβ3 = integrin αVβ3 (Homo sapiens, UniProt P05106+P06756); assay: Isolated integrin-ligand binding assay (ligand inhibition, immobilized integrin, biotinylated vitronectin); settings: immobilized recombinant human integrin, biotinylated human serum vitronectin as ligand
integrin αVβ3, sequence (P06756 31-1048): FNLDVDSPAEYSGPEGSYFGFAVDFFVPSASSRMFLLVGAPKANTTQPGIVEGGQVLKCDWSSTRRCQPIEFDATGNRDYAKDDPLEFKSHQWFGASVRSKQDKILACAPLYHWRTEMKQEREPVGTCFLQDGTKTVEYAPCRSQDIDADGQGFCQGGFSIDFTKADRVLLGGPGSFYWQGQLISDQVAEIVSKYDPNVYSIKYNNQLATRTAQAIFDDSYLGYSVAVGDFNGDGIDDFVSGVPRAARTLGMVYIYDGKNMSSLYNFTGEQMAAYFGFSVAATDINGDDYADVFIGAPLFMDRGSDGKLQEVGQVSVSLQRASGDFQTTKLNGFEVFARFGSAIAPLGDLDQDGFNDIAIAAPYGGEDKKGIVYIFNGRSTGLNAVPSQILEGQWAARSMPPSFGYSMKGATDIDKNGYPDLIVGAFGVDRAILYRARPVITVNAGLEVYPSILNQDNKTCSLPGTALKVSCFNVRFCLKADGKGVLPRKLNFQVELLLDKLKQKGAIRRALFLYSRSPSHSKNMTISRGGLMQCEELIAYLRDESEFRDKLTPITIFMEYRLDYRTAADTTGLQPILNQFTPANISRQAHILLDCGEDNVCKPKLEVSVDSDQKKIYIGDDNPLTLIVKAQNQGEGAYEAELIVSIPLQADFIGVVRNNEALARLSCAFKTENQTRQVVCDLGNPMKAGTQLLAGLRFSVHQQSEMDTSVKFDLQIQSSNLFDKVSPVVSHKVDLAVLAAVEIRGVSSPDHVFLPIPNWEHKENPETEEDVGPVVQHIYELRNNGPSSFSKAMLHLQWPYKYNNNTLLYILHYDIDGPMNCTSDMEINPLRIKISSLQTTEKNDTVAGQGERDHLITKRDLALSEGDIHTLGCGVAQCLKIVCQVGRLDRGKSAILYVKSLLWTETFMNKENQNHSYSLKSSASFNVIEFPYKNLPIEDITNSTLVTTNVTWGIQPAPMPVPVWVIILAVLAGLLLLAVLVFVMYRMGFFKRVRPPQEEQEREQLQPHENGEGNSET
integrin αVβ3, sequence (P05106 27-788): as the sequence (P05106 27-788) above
Protocol: i) Isolated Integrin-Ligand Binding Assay The production of recombinant human integrin is known in the literature. […] In brief, 96-well ELISA plates are coated by adsorption from neutral aqueous buffers of 1 microg/ml integrin. After blocking residual sites on the plate with BSA, biotinylated ligands (1 microg/ml) are added in the presence or absence of serial dilutions of inhibitor, and after incubation and washing, bound biotin is detected with peroxidase-coupled anti-biotin antibody and TMB substrate.

av-beta6, sequence (P06756 31-1048): as the sequence (P06756 31-1048) above
av-beta6, sequence (P18564 22-788): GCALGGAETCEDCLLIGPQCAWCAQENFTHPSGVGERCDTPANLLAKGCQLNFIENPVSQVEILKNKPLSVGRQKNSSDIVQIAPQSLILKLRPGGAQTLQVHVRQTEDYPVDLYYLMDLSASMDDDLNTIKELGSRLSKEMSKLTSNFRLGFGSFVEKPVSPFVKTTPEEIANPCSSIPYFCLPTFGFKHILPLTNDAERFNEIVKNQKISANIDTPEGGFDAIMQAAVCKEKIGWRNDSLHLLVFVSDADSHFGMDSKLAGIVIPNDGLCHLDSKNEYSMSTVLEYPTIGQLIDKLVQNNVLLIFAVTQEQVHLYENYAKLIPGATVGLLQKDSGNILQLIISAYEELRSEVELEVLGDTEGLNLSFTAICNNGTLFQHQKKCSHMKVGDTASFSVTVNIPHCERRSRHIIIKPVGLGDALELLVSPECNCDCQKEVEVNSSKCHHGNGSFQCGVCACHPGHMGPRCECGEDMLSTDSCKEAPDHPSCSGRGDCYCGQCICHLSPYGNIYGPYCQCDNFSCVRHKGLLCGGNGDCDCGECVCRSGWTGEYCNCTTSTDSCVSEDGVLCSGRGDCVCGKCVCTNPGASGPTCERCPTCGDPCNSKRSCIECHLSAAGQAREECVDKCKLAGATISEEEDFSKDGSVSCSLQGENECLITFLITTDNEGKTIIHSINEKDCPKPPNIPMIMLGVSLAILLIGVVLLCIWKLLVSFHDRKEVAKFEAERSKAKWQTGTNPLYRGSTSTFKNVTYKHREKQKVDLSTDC

N=C(N)NCCC[C@@H]1NC(=O)C2(CCCCC2)NC(=O)[C@@H](Cc2ccccc2)NC(=O)[C@H](CC(=O)O)NC(=O)CNC1=O [CPPC 1, Cyclo-(Arg-Gly-Asp-DPhe-Acha)]
activity as av-beta6 ligand (av-beta6): low active | activity as av-beta3/5 ligand (av-beta3/5): highly active | ADAM9 gene expression, Compound vs. Control, ratio Log(2) value [1]: 0.4854 | ASC gene expression, Compound vs. Control, ratio Log(2) value [1]: −0.304 | BCL2L1 gene expression, Compound vs. Control, ratio Log(2) value [1]: 0.263 | BMP-3 gene expression in treated skin [1]: downregulated | C19orf10 gene expression, Compound vs. Control, ratio Log(2) value [1]: 0.263 | CASP8 gene expression, Compound vs. Control, ratio Log(2) value [1]: −0.304 | CCNB2 gene expression, Compound vs. Control, ratio Log(2) value [1]: 0.4647 | CD81 gene expression, Compound vs. Control, ratio Log(2) value [1]: 0.251 | CDK2 gene expression, Compound vs. Control, ratio Log(2) value [1]: 0.2265 | CDK4 gene expression, Compound vs. Control, ratio Log(2) value [1]: 0.1375 | CLU gene expression, Compound vs. Control, ratio Log(2) value [1]: 0.4436 | DDR2 gene expression, Compound vs. Control, ratio Log(2) value [1]: 0.2869 | E2F3 gene expression, Compound vs. Control, ratio Log(2) value [1]: −0.3959 | EGF gene expression, Compound vs. Control, ratio Log(2) value [1]: −0.2345 | ELA2 gene expression, Compound vs. Control, ratio Log(2) value [1]: −0.2345 | FBLN1_4 gene expression, Compound vs. Control, ratio Log(2) value [1]: 0.516 | FBLN2 gene expression, Compound vs. Control, ratio Log(2) value [1]: 0.3785 | FGF1 gene expression, Compound vs. Control, ratio Log(2) value [1]: 0.5059 | FLOT2 gene expression, Compound vs. Control, ratio Log(2) value [1]: 0.4542 | GDF10 gene expression, Compound vs. Control, ratio Log(2) value [1]: −0.2863 | IGFBP4 gene expression, Compound vs. Control, ratio Log(2) value [1]: 0.4854 | IL2 gene expression, Compound vs. Control, ratio Log(2) value [1]: −0.5778 | IL6 gene expression, Compound vs. Control, ratio Log(2) value [1]: 0.4854 | IL7 gene expression, Compound vs. Control, ratio Log(2) value [1]: −0.3585 | IL8 gene expression, Compound vs. Control, ratio Log(2) value [1]: 0.3219 | IL17A gene expression, Compound vs. Control, ratio Log(2) value [1]: −0.6666 | JUN gene expression, Compound vs. Control, ratio Log(2) value [1]: −0.5778 | KRT2A gene expression, Compound vs. Control, ratio Log(2) value [1]: 0.4005 | KRT9 gene expression, Compound vs. Control, ratio Log(2) value [1]: −0.2688 | KRT19 gene expression, Compound vs. Control, ratio Log(2) value [1]: 0.3334 | LCN2 gene expression, Compound vs. Control, ratio Log(2) value [1]: −0.5564 | MCL1 gene expression, Compound vs. Control, ratio Log(2) value [1]: 0.3674 | PGF gene expression, Compound vs. Control, ratio Log(2) value [1]: 0.2141 | PTGS2 gene expression, Compound vs. Control, ratio Log(2) value [1]: 0.4222 | QSOX1 gene expression, Compound vs. Control, ratio Log(2) value [1]: 0.433 | S100A12 gene expression, Compound vs. Control, ratio Log(2) value [1]: −0.2515 | SDCBP gene expression, Compound vs. Control, ratio Log(2) value [1]: 0.3896 | SEPRASE gene expression, Compound vs. Control, ratio Log(2) value [1]: 0.546 | SOCS1 gene expression, Compound vs. Control, ratio Log(2) value [1]: 0.3334 | SPARC gene expression, Compound vs. Control, ratio Log(2) value [1]: 0.3674 | SPRR1A gene expression, Compound vs. Control, ratio Log(2) value [1]: −0.304 | STAT1 gene expression, Compound vs. Control, ratio Log(2) value [1]: 0.3103 | STAT5B gene expression, Compound vs. Control, ratio Log(2) value [1]: −0.1844 | TNF gene expression, Compound vs. Control, ratio Log(2) value [1]: −0.304 | TNFC gene expression, Compound vs. Control, ratio Log(2) value [1]: −0.3401 | TNFRSF1B gene expression, Compound vs. Control, ratio Log(2) value [1]: −0.3585 | TNFRSF25 gene expression, Compound vs. Control, ratio Log(2) value [1]: −0.2688 | TNFSF10 gene expression, Compound vs. Control, ratio Log(2) value [1]: −0.2688 | TNFSF13B gene expression, Compound vs. Control, ratio Log(2) value [1]: −0.2688 | TUBB gene expression, Compound vs. Control, ratio Log(2) value [1]: 0.6599 | TXLN gene expression, Compound vs. Control, ratio Log(2) value [1]: −0.8365 | bone morphogenic proteins (BMPs) gene expression in treated skin [1]: downregulated | fibulins gene expression in treated skin [1]: upregulated | number of deregulated genes selected (of 1312 genes on the microarray) ([1]; p<0.05, at least […] deregulation): 345

CC(C)[C@@H]1NC(=O)[C@H](Cc2ccccc2)NC(=O)[C@H](CC(=O)O)NC(=O)[C@@H](C)NC(=O)[C@H](CCCNC(=N)N)NC1=O [Cyclo-(Arg-DAla-Asp-Phe-Val)] (cyclo(R[dA]DFV))
IC50 [2]: > 240 µM

CC(C)(C)[C@@H]1NC(=O)[C@@H](Cc2ccc(F)cc2)NC(=O)[C@H](CC(=O)O)NC(=O)CNC(=O)[C@H](CCCNC(=N)N)NC1=O [Cyclo-(Arg-Gly-Asp-DPhe(4-F)-Tle)]
IC50 (human placental αVβ3): 3 nM

C[C@H]1C(=O)N[C@@H](CCCNC(=N)N)C(=O)NCC(=O)N[C@@H](CC(=O)O)C(=O)N[C@H](Cc2ccccc2)C(=O)N1C [Cyclo-(Arg-Gly-Asp-DPhe-(NMe)Ala)]
IC50 (integrin αVβ3): 24 nM
